From article doi:10.1101/2023.11.02.565309v1 (biorxiv, 2023)

Molecular target: WT GluA2(Q)i (Rattus norvegicus, UniProt P19491)
Format: cell-based
Settings: positive allosteric modulator at 100 µM

Sequence of WT GluA2(Q)i (P19491 22-883 isoform P19491-2): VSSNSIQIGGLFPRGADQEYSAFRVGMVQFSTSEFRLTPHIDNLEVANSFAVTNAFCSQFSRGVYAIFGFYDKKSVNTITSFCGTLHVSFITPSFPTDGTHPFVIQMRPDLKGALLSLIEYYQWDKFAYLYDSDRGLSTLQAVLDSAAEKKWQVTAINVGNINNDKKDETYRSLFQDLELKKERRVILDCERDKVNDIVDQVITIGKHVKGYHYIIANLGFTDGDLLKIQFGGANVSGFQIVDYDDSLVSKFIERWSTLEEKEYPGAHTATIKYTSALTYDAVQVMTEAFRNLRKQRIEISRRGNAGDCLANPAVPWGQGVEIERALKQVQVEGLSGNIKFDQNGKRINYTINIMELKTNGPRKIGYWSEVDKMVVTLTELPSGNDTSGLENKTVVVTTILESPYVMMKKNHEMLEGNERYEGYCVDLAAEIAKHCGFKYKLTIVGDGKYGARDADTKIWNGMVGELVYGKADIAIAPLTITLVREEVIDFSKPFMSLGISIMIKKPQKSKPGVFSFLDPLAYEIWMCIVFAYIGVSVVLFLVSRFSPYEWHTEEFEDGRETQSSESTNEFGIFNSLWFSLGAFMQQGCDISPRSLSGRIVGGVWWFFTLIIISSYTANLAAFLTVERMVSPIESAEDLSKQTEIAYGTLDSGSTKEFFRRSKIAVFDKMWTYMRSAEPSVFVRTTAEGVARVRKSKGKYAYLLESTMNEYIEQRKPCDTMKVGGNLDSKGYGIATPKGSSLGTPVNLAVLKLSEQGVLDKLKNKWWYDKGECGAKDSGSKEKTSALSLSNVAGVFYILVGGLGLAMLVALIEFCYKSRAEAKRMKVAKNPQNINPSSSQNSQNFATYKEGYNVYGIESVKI

SMILES: NS(=O)(=O)c1cc2c(cc1Cl)NC(C1CC3C=CC1C3)NS2(=O)=O (stereo not shown) [cyclothiazide]
- fold potentiation: ~ 3 fold
